For three compounds, MIC results are on record in DBAASP.

The structures appear in SMILES notation. Values after ≈ are worked out from the molar mass of the structure shown. Values joined by “and” are separate entries in the source; they are usually repeats but may differ in a detail not shown here. Equal values may be shown once.

Test systems include Klebsiella pneumoniae; Proteus mirabilis; Staphylococcus sciuri; Staphylococcus simulans; Microsporum canis; Escherichia coli; Escherichia coli MG1655; Vibrio cholerae.
Holding throughout (assay): ≥ marks a high value that may be exact or a test limit, other limits are often not marked, values filed in µg/mL are converted to µM
In assay [1] the test system is Klebsiella pneumoniae ATCC 13833.
In assay [2] the test system is Pseudomonas aeruginosa PAO1.
The test system of assay [3] is Escherichia coli ATCC 25922.
Assay [4] deals with Microsporum canis MW768151.
Assay [5] deals with Staphylococcus haemolyticus.
In assay [6] the test system is Pseudomonas aeruginosa PA002.
Assay [7] has as its system Cryptococcus neoformans B3501.
Assay [8] has as its system Staphylococcus epidermidis ATCC 12228.
In assay [9] the test system is Pseudomonas aeruginosa PA006.
The test system of assay [10] is Trichophyton rubrum ATCC 28189.
The subject of assay [11] is Enterococcus faecalis ATCC 29212.
The subject of assay [12] is Pseudomonas aeruginosa ATCC 27853.
The test system of assay [13] is Staphylococcus pseudintermedius MW767056.
For assay [14], the system named is Candida albicans ATCC 90028.
The test system of assay [15] is Staphylococcus pseudintermedius.
The test system of assay [16] is Staphylococcus cohnii MW767053.
Assay [17] has as its system Trichophyton mentagrophytes.
Assay [18] concerns Staphylococcus aureus MTCC 9542.
Assay [19] deals with Staphylococcus aureus ATCC 43300.
The subject of assay [20] is Bacillus subtilis MTCC 14416.
For assay [21], the system named is Shigella boydii MTCC 11947.
In assay [22] the test system is Citrobacter koseri MTCC 1657.
In assay [23] the test system is Corynebacterium glutamicum MTCC 2679.
Assay [24] concerns Haemophilus influenzae MTCC 621.
In assay [25] the test system is Vibrio cholerae MTCC 3904.
The subject of assay [26] is Staphylococcus aureus MTCC 3160.
The subject of assay [27] is Acinetobacter baumannii MTCC 9829.
Assay [28] relates to Pseudomonas aeruginosa MTCC 3542.
Assay [29] concerns Enterococcus faecalis MTCC 439.
Assay [30] has as its system Escherichia coli K12 MG1655.
Assay [31] deals with Stenotrophomonas maltophilia MTCC 1890.
The test system of assay [32] is Klebsiella aerogenes MTCC 111.
In assay [33] the test system is Shigella flexneri MTCC 1457.
The subject of assay [34] is Proteus vulgaris MTCC 1771.
The test system of assay [35] is Salmonella enterica MTCC 9844.
In assay [36] the test system is Alcaligenes faecalis MTCC 1937.
Assay [37] deals with Proteus mirabilis MTCC 3158.
The subject of assay [38] is Klebsiella oxytoca MTCC 2275.
For assay [39], the system named is Bordetella bronchiseptica MTCC 6837.
In assay [40] the test system is Alkalihalobacillus alcalophilus MTCC 860.
The subject of assay [41] is Pluralibacter gergoviae MTCC 3826.
Assay [42] relates to Citrobacter freundii MTCC 1658.
The subject of assay [43] is Klebsiella pneumoniae MTCC 7407.
For assay [44], the system named is Salmonella enterica subsp. enterica serovar Typhimurium ATCC 14028.
The test system of assay [45] is Staphylococcus haemolyticus MTCC 3383.

As for `CC[C@H](C)[C@H](NC(=O)[C@H](Cc1ccccc1)NC(=O)CNC(=O)[C@H](CCCCN)NC(=O)[C@@H](NC(=O)[C@H](Cc1ccccc1)NC(=O)[C@H](CCCCN)NC(=O)[C@H](CCCN=C(N)N)NC(=O)[C@@H](NC(=O)[C@@H](NC(=O)[C@H](CCCN=C(N)N)NC(=O)[C@@H](NC(=O)[C@H](C)NC(=O)[C@H](Cc1c[nH]c2ccccc12)NC(=O)[C@@H](N)CCCCN)C(C)C)[C@@H](C)CC)[C@@H](C)CC)[C@@H](C)CC)C(=O)N[C@@H](CO)C(N)=O` [KWAVRIIRKFIKGFIS], the MIC with Klebsiella pneumoniae was 5.77 µM (≈ 11.3 µg/mL); in assay [1], 1 µM (≈ 1.96 µg/mL); in [2], 4.08 µM (≈ 8 µg/mL); in the assay on Proteus mirabilis it was at least 65.2 µM; in the assay with Staphylococcus sciuri, at least 130 µM; in assay [3], 2.04 µM and 2 µM. The MIC in the assay on Staphylococcus simulans is at least 32.6 µM; in assay [4], 0.51 µM (≈ 1 µg/mL); in assay [5] it was at least 65.2 µM; in [6] it was 8.15 µM (≈ 16 µg/mL); against Microsporum canis it was 1.44 µM (≈ 2.83 µg/mL); in assay [7], 2 µM (≈ 3.92 µg/mL). Further, the MIC against Escherichia coli was 1.44 µM and 2.88 µM; in assay [8] it was 1 µM (≈ 1.96 µg/mL); in [9] it was 2.04 µM (≈ 4 µg/mL); in assay [10] it was 8 µM (≈ 15.7 µg/mL); in [11] it was 8.15 µM (≈ 16 µg/mL); in assay [12], 4.08 µM and 1.67 µM and 4 µM. Moreover, the MIC in assay [13] is at least 130 µM; in assay [14] it was 1.67 µM (≈ 3.28 µg/mL); in assay [15], at least 32.6 µM; in [16], 16.3 µM (≈ 32 µg/mL); in assay [17] it was 0.51 µM (≈ 1 µg/mL).
With `CC[C@H](C)[C@H](N)C(=O)N[C@@H](C)C(=O)NCC(=O)N[C@@H](CC(C)C)C(=O)N[C@@H](C)C(=O)N[C@@H](C)C(=O)N[C@@H](CC(N)=O)C(=O)N[C@@H](Cc1ccccc1)C(=O)N[C@@H](CC(C)C)C(=O)N1CCC[C@H]1C(=O)N[C@@H](CCC(N)=O)C(=O)N[C@H](C(=O)N[C@@H](CC(C)C)C(=O)N[C@@H](CS)C(=O)N[C@@H](CCCCN)C(=O)N[C@H](C(=O)N[C@@H](C)C(=O)N[C@@H](CCCN=C(N)N)C(=O)N[C@@H](CCCCN)C(N)=O)[C@@H](C)CC)[C@@H](C)CC` [IAGLAANFLPQILCKIARK], the MIC against Escherichia coli MG1655 was 12.3 µM (≈ 25 µg/mL); in assay [18], 24.5 µM (≈ 50 µg/mL); in assay [19] it was 24.5 µM (≈ 50 µg/mL); in assay [11], 24.5 µM (≈ 50 µg/mL); in assay [12] it was above 49 µM; in assay [20] it was 24.5 µM (≈ 50 µg/mL). The MIC in the assay on Vibrio cholerae was 24.5 µM (≈ 50 µg/mL).
Turning to `CC[C@H](C)[C@H](NC(=O)[C@H](C)NC(=O)[C@@H]1CCCN1C(=O)[C@@H]1CCCN1C(=O)[C@H](CC(C)C)NC(=O)[C@H](Cc1cnc[nH]1)NC(=O)[C@H](CCCCN)NC(=O)[C@H](C)NC(=O)[C@@H](NC(=O)CNC(=O)[C@H](CCCCN)NC(=O)[C@H](C)NC(=O)[C@@H](NC(=O)[C@@H](N)CCC(=O)O)[C@@H](C)O)C(C)C)C(=O)N[C@@H](C)C(=O)O` [ETAKGVAKHLPPAIA], the MIC in [21], in assay [22], in assay [23], in assay [24], in [25] and in assay [26] was at least 85.2 µM throughout. In addition, the MIC in [27], in assay [28], in [29], in [30], in assay [31] and in assay [32] was at least 85.2 µM in each case. The MIC in assay [33], in assay [34], in assay [35], in [36], in assay [37] and in [38] was at least 85.2 µM in each case. The MIC in assay [39] was at least 85.2 µM; in assay [40], at least 85.2 µM; in assay [41] it was at least 85.2 µM; in [42] it was at least 85.2 µM; in assay [43], at least 85.2 µM; in assay [44] it was above 85.2 µM. Besides, the MIC in assay [45] is at least 85.2 µM.
